# Test system: E-cadherin, β-catenin, N-cadherin and vimentin in melanoma cells
# Assay: Immunofluorescence of E-cadherin, β-catenin, N-cadherin and vimentin (ETM transition)
# Type: cell-based, mouse
# Settings: 2% methyl sulfone, 1 week
# Experimental: Cells were plated onto 12 mm coverslips. When cells grew to 60 to 70% confluence, 2% methyl sulfone was added to half the coverslips and normal medium to other half. […] PBS for 30 seconds and fixed in 37° C. 4% paraformaldehyde for 10 minutes. Cells were washed in PBS for 5 minutes and incubated in 1% Triton X-100/PBS for 5 minutes. To block nonspecific sites, chicken serum was diluted 1/20 in PBS and added to cells for 30 minutes. Cells were washed 3 times in 0.1% Triton X-100/PBS, 3 minutes each.
# Rabbit anti-E-cadherin antibody (Santa Cruz Biotech, Calif.) was diluted 1/100 in 5% BSA/PBS and added to the cells on coverslips for 2 hours. Cells were washed 5 times in 0.1% Triton X-100/PBS, 3 minutes each. Secondary antibody, Alexa Fluor 488 chicken anti-rabbit was diluted 1/200 in 5% BSA/PBS and added to coverslips for one hour in the dark. Cells were washed five times in 0.1% Triton X-100/PBS, three minutes each. Cells were washed in PBS for one minute and placed in Hoechst (1 mg/ml), diluted 1/1000, for 5 minutes. Cells were washed in PBS for one minute. SlowFade was added to slides, coverslips were placed face down and sealed with nail polish. […]
substance,measurement,value
methyl sulfone,"distribution of E-cadherin, β-catenin, N-cadherin and vimentin vs untreated",no significant differences

# Source: US10363229B2, “Methods and compositions for the treatment of cancer” (priority 2009, dated 2019)
